Measurements from PubChem BioAssay AID588640 (The Scripps Research Institute Molecular Screening Center, 2011).
Calls of active or inactive are those of the source.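 The calls were made as follows: active = p38 protein level shifted at least 30% from the DMSO control, either lower or higher; inactive = the rest.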

System: HCT116 p38 protein level, western blot, 24 h
Assay: total p38 protein level change, either direction, late-stage follow-up, counter-screen for KLF5 inhibitor project, cell-based, HCT116 colorectal carcinoma, chemiluminescent western blot (AID 588640)
Conditions: at 10 µM; for inhibition: stronger effect = higher value; for fold change: measured here: p38 band fold change vs DMSO

Compound	inhibition	fold change
CN(C(=O)CNC(=O)/C=C/c1cccc(Cl)c1)C1CCS(=O)(=O)C1 (stereo unspecified)	-15.7% (inactive)	1.16
CN(C(=O)COC(=O)/C=C/c1cccc([N+](=O)[O-])c1)C1CCS(=O)(=O)C1 (stereo unspecified)	36.3%	0.658
CN(C(=O)CNC(=O)/C=C/c1cccc(Cl)c1)C1CCS(=O)(=O)CC1	35.2%	0.647
